Laboratory results published in publication PMC3089953 (Bioorganic & medicinal chemistry letters, 2009).
“Also recorded” adds a separate entry of the source.

Assays:
adenosine deaminase = assay: Conversion by purified adenosine deaminase; settings: pH 7.4, 25 °C; for Conversion to AZG by adenosine deaminase: 0.2 units per mL enzyme, 120 min, 50 μM nucleoside
PBM cells [1] = assay: Cytotoxicity in PBM cells; type: cell-based; settings: human
[2] = cited from earlier work
PBM cells [3] = assay: Intracellular metabolism in PBM cells; type: in vitro ADME, human; settings: 50 μM for 4 h at 37 °C, LC/MS/MS
in vitro = type: cell-based; settings: human, CEM cells (T-cell-derived cell line)
[4] = Cytotoxicity in Vero cells; type: cell-based, African green monkey; settings: African green monkey, Vero cells (kidney epithelial cells)
CEM cells = assay: in vitro; type: cell-based; settings: CEM cells
Vero cells = assay: Cytotoxicity in Vero cells; type: cell-based, African green monkey; settings: Vero cells
HIV-1LAI = assay: Anti-HIV activity against HIV-1LAI in human PBM cells; type: cell-based
PBM, CEM, and Vero cells = assay: Cytotoxicity in PBM, CEM and Vero cells; type: cell-based

For `Nc1ncnc2c1ncn2[C@H]1C[C@H](O)[C@@H](CO)O1` [2′-Deoxyadenosine, reference compound], the “Deaminated to 2′-deoxyinosine” value (adenosine deaminase; 7 min with 0.002 units of enzyme, 50 μM, positive control) was 59%.
In the case of `Cc1cn([C@H]2C[C@H](N=[N+]=[N-])[C@@H](CO)O2)c(=O)[nH]c1=O` [AZT, 3′-Azido-3′-deoxythymidine], the IC50 (PBM cells [1]) is given as > 100 µM and the “Bone marrow toxicity, share of the patients” value [2] is given as “about 5%”.
With `[N-]=[N+]=N[C@H]1C[C@H](n2cnc3c(Cl)nc(N)nc32)O[C@@H]1CO` [Compound 10] the “Conversion to AZG by adenosine deaminase” value (adenosine deaminase) was “substantially or completely converted to AZG”, the “Conversion to AZG-TP in PBM cells” value (PBM cells [3]) was “converted to AZG-TP” and the “Detection of the nucleoside analog in the triphosphate (TP) form” value (“Detection of the nucleoside analog” for short) (PBM cells [3]) was “unable to detect”.
In the case of `[N-]=[N+]=N[C@H]1C[C@H](n2cnc3c(N)nc(N)nc32)O[C@@H]1CO` [Compound 12], the “Conversion to AZG by adenosine deaminase” value (adenosine deaminase) is reported as “substantially or completely converted to AZG; also recorded: substantially converted to AZG” and the “Conversion to AZG-TP in PBM cells” value (PBM cells [3]) is reported as “converted to AZG-TP”.
For `COc1nc(N)nc2c1ncn2[C@H]1C[C@H](N=[N+]=[N-])[C@@H](CO)O1` [Compound 17], the “Conversion to AZG by adenosine deaminase” value (adenosine deaminase) was “substantially or completely converted to AZG”, the “Conversion to AZG-TP in PBM cells” value (PBM cells [3]) was “converted to AZG-TP” and the “Detection of the nucleoside analog” value (PBM cells [3]) was “unable to detect”.
With `CN(C)c1nc(N)nc2c1ncn2[C@H]1C[C@H](N=[N+]=[N-])[C@@H](CO)O1` [Compound 18] the IC50 (in vitro) was > 100 µM, the “Conversion to AZG by adenosine deaminase” value (adenosine deaminase) was “resistant to adenosine deaminase” and the “Conversion to AZG-TP in PBM cells” value (PBM cells [3]) was “converted to AZG-TP”. The “Detection of the nucleoside analog” value (PBM cells [3]) was “unable to detect” and the IC50 [4] was > 100 µM.
For `[N-]=[N+]=N[C@H]1C[C@H](n2cnc3c(NC4CC4)nc(N)nc32)O[C@@H]1CO` [Compound 19], the IC50 (in vitro) was > 100 µM, the “Conversion to AZG by adenosine deaminase” value (adenosine deaminase) was “substantially or completely converted to AZG” and the “Conversion to AZG-TP in PBM cells” value (PBM cells [3]) was “converted to AZG-TP”. For the same compound, the “Detection of the nucleoside analog” value (PBM cells [3]) was “unable to detect” and the IC50 [4] was > 100 µM.
In the case of `C=CCNc1nc(N)nc2c1ncn2[C@H]1C[C@H](N=[N+]=[N-])[C@@H](CO)O1` [Compound 20], the “Conversion to AZG by adenosine deaminase” value (adenosine deaminase) is reported as “substantially or completely converted to AZG”, the “Conversion to AZG-TP in PBM cells” value (PBM cells [3]) is reported as “converted to AZG-TP” and the “Detection of the nucleoside analog” value (PBM cells [3]) is reported as “unable to detect”.
In the case of `C=CCN(C)c1nc(N)nc2c1ncn2[C@H]1C[C@H](N=[N+]=[N-])[C@@H](CO)O1` [Compound 21], the “Toxicity in CEM cells” value (CEM cells) is reported as “increased toxicity” and the “Toxicity in Vero cells” value (Vero cells) is reported as “increased toxicity”.
In the case of `C#CCNc1nc(N)nc2c1ncn2[C@H]1C[C@H](N=[N+]=[N-])[C@@H](CO)O1` [Compound 22], the “Anti-HIV activity” value (HIV-1LAI) is reported as “significantly less active” and the “Cytotoxicity” value (PBM, CEM, and Vero cells) is reported as “no toxicity”.
For `CC(C)(CO)Nc1nc(N)nc2c1ncn2[C@H]1C[C@H](N=[N+]=[N-])[C@@H](CO)O1` [Compound 24], the IC50 (in vitro) was > 100 µM and the IC50 [4] was > 100 µM.
In the case of `[N-]=[N+]=N[C@H]1C[C@H](n2cnc3c(NCCO)nc(N)nc32)O[C@@H]1CO` [Compound 26], the IC50 (in vitro) is reported as > 100 µM and the IC50 [4] is reported as > 100 µM.
With `COc1nc(Cl)nc2c1ncn2[C@H]1C[C@H](N=[N+]=[N-])[C@@H](CO)O1` [Compound 30] the IC50 (in vitro) was > 100 µM and the IC50 [4] was > 100 µM.
With `[N-]=[N+]=N[C@H]1C[C@H](n2cnc3c(N)nc(Cl)nc32)O[C@@H]1CO` [Compound 31] the IC50 (in vitro) was > 100 µM and the IC50 [4] was > 100 µM.
With `[N-]=[N+]=N[C@H]1C[C@H](n2cnc3c(NC4CC4)nc(Cl)nc32)O[C@@H]1CO` [Compound 33] the IC50 (in vitro) was > 100 µM and the IC50 [4] was > 100 µM.
In the case of `CN(C)c1nc(Cl)nc2c1ncn2[C@H]1C[C@H](N=[N+]=[N-])[C@@H](CO)O1` [Compound 34], the IC50 (in vitro) is reported as > 100 µM and the IC50 [4] is reported as > 100 µM.
In the case of `[N-]=[N+]=N[C@H]1C[C@H](n2cnc3c(N)nc(F)nc32)O[C@@H]1CO` [Compound 35], the “Cytotoxicity” value (PBM, CEM, and Vero cells) is reported as “increase in cytotoxicity”.
With `COc1nc(F)nc2c1ncn2[C@H]1C[C@H](N=[N+]=[N-])[C@@H](CO)O1` [Compound 36] the IC50 (in vitro) was > 100 µM and the IC50 [4] was > 100 µM.
With `[N-]=[N+]=N[C@H]1C[C@H](n2cnc3c(Cl)nc(F)nc32)O[C@@H]1CO` [Compound 37] the “Cytotoxicity” value (PBM, CEM, and Vero cells) was “increase in cytotoxicity”.
In the case of `COc1nc(N)c2ncn([C@H]3C[C@H](N=[N+]=[N-])[C@@H](CO)O3)c2n1` [Compound 38], the IC50 (in vitro) is reported as > 100 µM and the IC50 [4] is reported as > 100 µM.
With `COc1nc(OC)c2ncn([C@H]3C[C@H](N=[N+]=[N-])[C@@H](CO)O3)c2n1` [Compound 39] the IC50 (in vitro) was > 100 µM, the IC50 [4] was > 100 µM and the “No cytotoxicity up to” value (PBM, CEM, and Vero cells) was > 100 µM.
With `COc1nc(NC2CC2)c2ncn([C@H]3C[C@H](N=[N+]=[N-])[C@@H](CO)O3)c2n1` [Compound 40] the IC50 (in vitro) was > 100 µM and the IC50 [4] was > 100 µM.
